Among the data in US4308259A, “Penicillin derivatives” (Beecham Group Limited, priority 1979, dated 1981) are MIC values, retold here.

Structures are written as SMILES. Structures can show the parent of a compound that is named as a salt. Where two headings read alike, the source gives them in different places.

Holding throughout (format): cell-based
One test has as its system N. catarrhalis 1502. As to the kind of experiment: MIC against N. catarrhalis 1502.
The test system of another test is K. aerogenes A. The experiment in a line: MIC against K. aerogenes A. The conditions noted are these: Klebsiella aerogenes.
In another test the test system is S. pyogenes CN 10. The experiment in a line: MIC against S. pyogenes CN 10. The conditions noted are these: Streptococcus pyogenes, CN10.
The test system of a further test is P. rettgeri. The experiment in a line: MIC against P. rettgeri. To be noted: Providencia rettgeri.
The test system of the next test is E. coli JT 4. The experiment in a line: MIC (antibacterial activity) against E. coli JT 4. The conditions noted are these: Escherichia coli, JT4.
The test system of a further test is E. cloacae N1. The experiment in a line: MIC against E. cloacae N1. To be noted: Enterobacter cloacae.
Another test relates to P. mirabilis 889. As to the kind of experiment: MIC against P. mirabilis 889. To be noted: Proteus mirabilis.
A further test deals with B. subtilis. The experiment in a line: MIC against B. subtilis. To be noted: Bacillus subtilis.
Test [1] relates to Ps. aeruginosa NCTC 10662. The experiment in a line: MIC against Ps. aeruginosa NCTC 10662.
The test system of a further test is P. morganii. The experiment in a line: MIC against P. morganii. The conditions noted are these: Morganella morganii.
Another test has as its system E. coli JT 425. The experiment in a line: MIC against E. coli JT 425. To be noted: Escherichia coli, JT425.
A further test concerns E. coli NCTC 10418. As to the kind of experiment: MIC against E. coli NCTC 10418. To be noted: Escherichia coli, NCTC10418.
The test system of a further test is S. marcescens US 32. The experiment in a line: MIC against S. marcescens US 32. The conditions noted are these: Serratia marcescens, US32.
The next test relates to S. aureus Russell. As to the kind of experiment: MIC against S. aureus Russell. To be noted: Staphylococcus aureus.
For a further test, the system named is P. mirabilis C 977. As to the kind of experiment: MIC against P. mirabilis C 977. The conditions noted are these: Proteus mirabilis, C977.
A further test concerns Ps. aeruginosa Dalgleish. The experiment in a line: MIC against Ps. aeruginosa Dalgleish. The conditions noted are these: Pseudomonas aeruginosa; Ps. aeruginosa Dalgleish 10^-2.
For a further test, the system named is S. faecalis I. The experiment in a line: MIC against S. faecalis I. The conditions noted are these: Enterococcus faecalis.
For another test, the system named is S. aureus Oxford. The experiment in a line: MIC against S. aureus Oxford. The conditions noted are these: Staphylococcus aureus.
The mark [2] stands for this setting: Pseudomonas aeruginosa, NCTC10662, Ps. aeruginosa NCTC 10662 10^-2, read-out: MIC.
Where [3] appears, read: Pseudomonas aeruginosa, NCTC10662, Ps. aeruginosa NCTC 10662, read-out: MIC.

Take `CO[C@@]1(NC(=O)C(c2ccccc2F)S(=O)(=O)O)C(=O)N2[C@@H](C(=O)O)C(C)(C)S[C@@H]21` (stereo partly drawn) [Example 9, Disodium 6,β-[2-(2-fluorophenyl)-2-sulphoacetamido]-6,α-methoxypenicillanate]: the minimal inhibitory concentration (MIC) (as a rule, the lowest concentration found to suppress growth) against N. catarrhalis 1502 is less than 0.02 µg/mL; against K. aerogenes A, 2.5 µg/mL; with S. pyogenes CN 10, 5 µg/mL; in the test with P. rettgeri (P. rettgeri, read-out: MIC), 5 µg/mL; in the test with E. coli JT 4, 25 µg/mL; in the test on E. cloacae N1, 2.5 µg/mL. Further, the minimum inhibitory concentration (MIC) was 5 µg/mL with P. mirabilis 889; 25 µg/mL in the test on B. subtilis; 100 µg/mL in test [1] (setting [2]); greater than 100 µg/mL in [1] (setting [3]); 5 µg/mL against P. morganii; 10 µg/mL in the test with E. coli JT 425 (E. coli JT 425, read-out: MIC). Moreover, the minimum inhibitory concentration (MIC) with E. coli NCTC 10418 is 10 µg/mL; against S. marcescens US 32 it was 50 µg/mL; against S. aureus Russell, 50 µg/mL; in the test on P. mirabilis C 977, 5 µg/mL; with Ps. aeruginosa Dalgleish, 100 µg/mL; in the test on S. faecalis I, greater than 100 µg/mL. For the same molecule, in the test on S. aureus Oxford, the MIC turned out to be 25 µg/mL.
`CO[C@@]1(NC(=O)C(c2ccccc2)P(=O)(O)OC)C(=O)N2[C@@H](C(=O)O)C(C)(C)S[C@@H]21` (stereo partly drawn) [Example 6, 6,α-Methoxy-6,β-(2-O-methylphosphono-2-phenylacetamido)penicillanic acid disodium salt]: the minimum inhibitory concentration (MIC) in the test with N. catarrhalis 1502 is 0.5 µg/mL; against K. aerogenes A, 12.5 µg/mL; against S. pyogenes CN 10, greater than 500 µg/mL; against P. rettgeri, 12.5 µg/mL; with E. coli JT 4, 125 µg/mL; against E. cloacae N1, 12.5 µg/mL. In addition, the MIC in the test with P. mirabilis 889 was 50 µg/mL; against B. subtilis, greater than 500 µg/mL; in [1] (Ps. aeruginosa NCTC 10662 10^-2) it was 500 µg/mL; in [1] (setting [3]) it was 500 µg/mL; against P. morganii it was 50 µg/mL; against E. coli JT 425 it was 50 µg/mL. The minimum inhibitory concentration (MIC) with E. coli NCTC 10418 was 50 µg/mL; with S. marcescens US 32, 125 µg/mL; against S. aureus Russell, greater than 500 µg/mL; in the test on P. mirabilis C 977 it was 25 µg/mL; in the test with Ps. aeruginosa Dalgleish, 250 µg/mL; in the test on S. faecalis I, greater than 500 µg/mL. In the test with S. aureus Oxford, this molecule registered an MIC greater than 500 µg/mL.
Turning to `CO[C@@]1(NC(=O)C(c2ccccc2)S(=O)(=O)O)C(=O)N2[C@@H](C(=O)O)C(C)(C)S[C@@H]21` (stereo partly drawn) [Example 1, Disodium 6,α-methoxy-6,β -(2-phenyl-2-sulphoacetamido) penicillanate], the MIC against K. aerogenes A amounted to 2.5 µg/mL; against S. pyogenes CN 10 it was 50 µg/mL; with P. rettgeri (P. rettgeri, read-out: MIC) it was 10 µg/mL; against E. coli JT 4 it was 25 µg/mL; against E. cloacae N1, 25 µg/mL; against P. mirabilis 889 it was 5 µg/mL. For the same molecule, the MIC in the test on B. subtilis was greater than 100 µg/mL; in [1] (setting [2]), greater than 100 µg/mL; in [1] (setting [3]) it was greater than 100 µg/mL; against P. morganii, 10 µg/mL; in the test on E. coli JT 425 (E. coli JT 425, read-out: MIC) it was 10 µg/mL; against E. coli NCTC 10418, 25 µg/mL. For the same molecule, the MIC is greater than 100 µg/mL with S. marcescens US 32; greater than 100 µg/mL in the test with S. aureus Russell; 5 µg/mL in the test with P. mirabilis C 977; 50 µg/mL in the test on Ps. aeruginosa Dalgleish; greater than 100 µg/mL in the test on S. faecalis I; greater than 100 µg/mL in the test with S. aureus Oxford.
As to `CO[C@@]1(NC(=O)C(c2ccc(N)cc2)S(=O)(=O)O)C(=O)N2[C@@H](C(=O)O)C(C)(C)S[C@@H]21` (stereo partly drawn) [Example 4, Disodium 6,β-[2-(4-aminophenyl)-2-sulphoacetamido]-6,α-methoxy-penicillanate], the MIC came to 0.05 µg/mL in the test with N. catarrhalis 1502; 2.5 µg/mL in the test on K. aerogenes A; 25 µg/mL against S. pyogenes CN 10; 6 µg/mL in the test on P. rettgeri (P. rettgeri, read-out: MIC); 10 µg/mL with E. coli JT 4; 5 µg/mL in the test with E. cloacae N1. Besides, the MIC in the test on P. mirabilis 889 was 10 µg/mL; in the test with B. subtilis it was greater than 100 µg/mL; in [1] (setting [2]), 25 µg/mL; in test [1] (setting [3]), 25 µg/mL; in the test with P. morganii, 5 µg/mL; in the test on E. coli JT 425 (E. coli JT 425, read-out: MIC) it was 10 µg/mL. Moreover, the MIC with E. coli NCTC 10418 is 10 µg/mL; against S. marcescens US 32 it was 25 µg/mL; in the test with S. aureus Russell, greater than 100 µg/mL; in the test on P. mirabilis C 977 it was 5 µg/mL; against Ps. aeruginosa Dalgleish, 25 µg/mL; against S. faecalis I, greater than 100 µg/mL. Further, the minimum inhibitory concentration (MIC) in the test with S. aureus Oxford was greater than 100 µg/mL.
`CO[C@@]1(NC(=O)C(c2ccc(O)cc2)S(=O)(=O)O)C(=O)N2[C@@H](C(=O)O)C(C)(C)S[C@@H]21` (stereo partly drawn) [Example 8, Disodium 6,β-[2-(4-hydroxyphenyl)-2-sulphoacetamido]-6,α-methoxypenicillanate]: the minimal inhibitory concentration (MIC) in the test with N. catarrhalis 1502 is 0.2 µg/mL; against K. aerogenes A, 10 µg/mL; in the test with S. pyogenes CN 10 it was 25 µg/mL; in the test on P. rettgeri (P. rettgeri, read-out: MIC), 10 µg/mL; against E. coli JT 4, 25 µg/mL; with E. cloacae N1, 10 µg/mL. The minimal inhibitory concentration (MIC) was 25 µg/mL with P. mirabilis 889; greater than 100 µg/mL with B. subtilis; 50 µg/mL in [1] (setting [2]); 50 µg/mL in test [1] (setting [3]); 25 µg/mL in the test with P. morganii; 25 µg/mL in the test with E. coli JT 425 (E. coli JT 425, read-out: MIC). In addition, the minimal inhibitory concentration (MIC) was 25 µg/mL against E. coli NCTC 10418; 100 µg/mL with S. marcescens US 32; greater than 100 µg/mL in the test on S. aureus Russell; 25 µg/mL against P. mirabilis C 977; 25 µg/mL against Ps. aeruginosa Dalgleish; greater than 100 µg/mL in the test with S. faecalis I. In addition, in the test on S. aureus Oxford, the MIC was greater than 100 µg/mL.
